From a compilation of properties of binary mixtures (doi:10.1039/c2cc30374d)

Test: xn = mol fraction of the nth substance listed
Settings: 101 kPa

[N-]=C=S.[NH4+] + CC(=O)[O-].CC[n+]1ccn(C)c1
Settings | electrical conductivity [S/m] | viscosity [mPa·s]
298.15 K, x1 = 0.02 | 0.294 | 136.6
298.15 K, x1 = 0.1002 | 0.284 | 160.2
298.15 K, x1 = 0.1998 | 0.296 | 190.7
298.15 K, x1 = 0.2514 | 0.314 | 198.6
298.15 K, x1 = 0.3413 | 0.358 | 196.4
303.15 K, x1 = 0.02 | 0.382 | 100.9
303.15 K, x1 = 0.2514 | 0.411 | 144.4
303.15 K, x1 = 0.3199 | 0.458 | 142.8
303.15 K, x1 = 0.3413 | 0.463 | 143.6
308.15 K, x1 = 0.02 | 0.483 | 76.4
308.15 K, x1 = 0.1002 | 0.473 | 88.5
308.15 K, x1 = 0.3001 | 0.569 | 105.9
308.15 K, x1 = 0.3199 | 0.58 | 106.6
313.15 K, x1 = 0.02 | 0.601 | 59.3
313.15 K, x1 = 0.1002 | 0.593 | 68.1
313.15 K, x1 = 0.1998 | 0.617 | 79.3
313.15 K, x1 = 0.2514 | 0.66 | 81.5
313.15 K, x1 = 0.3001 | 0.782 | 80.5
313.15 K, x1 = 0.3199 | 0.797 | 81.1
318.15 K, x1 = 0.02 | 0.82 | 46.9
318.15 K, x1 = 0.1002 | 0.811 | 53.3
318.15 K, x1 = 0.2514 | 0.901 | 62.9
318.15 K, x1 = 0.3001 | 0.968 | 62.3
318.15 K, x1 = 0.3199 | 0.986 | 62.8
318.15 K, x1 = 0.3413 | 0.997 | 63.3
323.15 K, x1 = 0.02 | 0.986 | 37.8
323.15 K, x1 = 0.1002 | 0.987 | 42.5
323.15 K, x1 = 0.1998 | 1.04 | 48.4
323.15 K, x1 = 0.2514 | 1.1 | 49.3
323.15 K, x1 = 0.3001 | 1.18 | 48.9
323.15 K, x1 = 0.3199 | 1.2 | 49.3
323.15 K, x1 = 0.3413 | 1.21 | 49.8
328.15 K, x1 = 0.02 | – | 30.91
328.15 K, x1 = 0.1998 | – | 38.62
328.15 K, x1 = 0.2514 | – | 39.15
328.15 K, x1 = 0.3001 | – | 38.91
328.15 K, x1 = 0.3413 | – | 39.67
333.15 K, x1 = 0.2514 | – | 31.49
333.15 K, x1 = 0.3199 | – | 31.67
333.15 K, x1 = 0.3413 | – | 32

CCOS(=O)(=O)[O-].CC[n+]1ccn(C)c1 + [N-]=C=S.[NH4+]
x2 = 0
Settings | electrical conductivity [S/m] | viscosity [mPa·s]
298.15 K | 0.38 | 95.9
303.15 K | 0.468 | 75.63
308.15 K | 0.566 | 60.66
313.15 K | 0.675 | 49.45
318.15 K | 0.856 | 40.88
323.15 K | 1 | 34.24
328.15 K | – | 28.99
333.15 K | – | 24.81

CC(=O)[O-].CC[n+]1ccn(C)c1 + [N-]=C=S.[NH4+]
x2 = 0
Settings | electrical conductivity [S/m] | viscosity [mPa·s]
298.15 K | 0.295 | 128.4
303.15 K | 0.383 | 95.1
308.15 K | 0.483 | 72.4
318.15 K | 0.819 | 44.8
323.15 K | 0.984 | 36.27
328.15 K | – | 29.81
333.15 K | – | 24.86

[N-]=C=S.[NH4+] + CCOS(=O)(=O)[O-].CC[n+]1ccn(C)c1
Settings | electrical conductivity [S/m] | viscosity [mPa·s]
298.15 K, x1 = 0.1553 | 0.319 | 150
298.15 K, x1 = 0.4042 | 0.279 | 231.1
298.15 K, x1 = 0.5205 | 0.281 | 224
298.15 K, x1 = 0.565 | 0.295 | 215.9
298.15 K, x1 = 0.5997 | 0.301 | 208.9
303.15 K, x1 = 0.0235 | 0.461 | 81.3
303.15 K, x1 = 0.1553 | 0.398 | 118
303.15 K, x1 = 0.3025 | 0.358 | 163.3
303.15 K, x1 = 0.4042 | 0.353 | 178.7
303.15 K, x1 = 0.5205 | 0.358 | 173.4
303.15 K, x1 = 0.5997 | 0.385 | 168.2
308.15 K, x1 = 0.0235 | 0.56 | 65.16
308.15 K, x1 = 0.1553 | 0.486 | 94.3
308.15 K, x1 = 0.5205 | 0.446 | 135.3
308.15 K, x1 = 0.565 | 0.468 | 133.9
308.15 K, x1 = 0.5997 | 0.481 | 133.7
313.15 K, x1 = 0.0235 | 0.67 | 53.09
313.15 K, x1 = 0.1553 | 0.584 | 76.57
313.15 K, x1 = 0.3025 | 0.531 | 104.6
313.15 K, x1 = 0.4042 | 0.526 | 112.9
313.15 K, x1 = 0.5205 | 0.546 | 107.5
313.15 K, x1 = 0.565 | 0.573 | 106
318.15 K, x1 = 0.0235 | 0.846 | 43.86
318.15 K, x1 = 0.1553 | 0.739 | 63.03
318.15 K, x1 = 0.3025 | 0.633 | 85.6
318.15 K, x1 = 0.4042 | 0.633 | 91.8
318.15 K, x1 = 0.5997 | 0.751 | 84.6
323.15 K, x1 = 0.0235 | 0.99 | 36.68
323.15 K, x1 = 0.1553 | 0.867 | 52.56
323.15 K, x1 = 0.3025 | 0.795 | 70.9
323.15 K, x1 = 0.4042 | 0.795 | 75.6
323.15 K, x1 = 0.5205 | 0.831 | 71.22
323.15 K, x1 = 0.5997 | 0.896 | 68.92
328.15 K, x1 = 0.0235 | – | 31.04
328.15 K, x1 = 0.1553 | – | 44.26
328.15 K, x1 = 0.3025 | – | 59.41
328.15 K, x1 = 0.4042 | – | 63.04
328.15 K, x1 = 0.5205 | – | 59.16
328.15 K, x1 = 0.565 | – | 57.79
328.15 K, x1 = 0.5997 | – | 56.96
333.15 K, x1 = 0.1553 | – | 37.68
333.15 K, x1 = 0.5205 | – | 49.72
333.15 K, x1 = 0.565 | – | 48.47
